Test results as given in PubChem BioAssay (NCI).
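Following 48 hours of exposure in 96-well plates, responses at five concentrations were used to interpolate endpoints linearly. At the GI50, growth is halved. Definition used: TGI = concentration required for complete inhibition of growth.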

What was measured:
Test in all cases: growth of human tumour cells (NCI), 48 h
[1] = test system: MALME-3M melanoma
[2] = test system: UO-31 renal
[3] = test system: K-562 leukemia
[4] = test system: KM12 colon
[5] = test system: UACC-62 melanoma
[6] = test system: HOP-62 NSCLC
[7] = test system: HL-60(TB) leukemia
[8] = test system: M14 melanoma
[9] = test system: SF-268 CNS

SMILES	GI50 [1]	TGI [1]	GI50 [2]	TGI [2]	GI50 [3]	TGI [3]	GI50 [4]	TGI [4]	GI50 [5]	TGI [5]	GI50 [6]	TGI [6]	GI50 [7]	TGI [7]	GI50 [8]	TGI [8]	GI50 [9]	TGI [9]
CO/N=C(/COc1c(-c2ccccc2)oc2ccccc2c1=O)c1ccc(OC)cc1	> 100 µM	> 100 µM	61.3 µM	> 100 µM	42.5 µM	> 100 µM	56.1 µM	> 100 µM	53.5 µM	> 100 µM	> 100 µM	> 100 µM	21.5 µM	> 100 µM	> 100 µM	> 100 µM		
O=C(O)C[O][Sb][O]CC(=O)O	> 100 µM	> 100 µM	> 100 µM	> 100 µM	> 100 µM	> 100 µM	> 100 µM	> 100 µM	> 100 µM	> 100 µM	> 100 µM	> 100 µM			> 100 µM	> 100 µM	> 100 µM	> 100 µM
COc1ccc(-c2cc(-c3cn[nH]c3-c3ccccn3)ccn2)cc1	> 25 µM	> 25 µM	20.4 µM	> 25 µM	14 µM	> 25 µM	> 25 µM	> 25 µM	> 25 µM	> 25 µM	> 25 µM	> 25 µM	> 25 µM	> 25 µM	> 25 µM	> 25 µM	> 25 µM	> 25 µM
Cc1cc2c3ccccc3ccc2[n+]2ccccc12	0.657 µM	3.45 µM	3.73 µM	> 100 µM	4.32 µM	32.8 µM	1.43 µM	11.6 µM	6 µM	20.4 µM	2.58 µM	11.7 µM	14.3 µM	46.3 µM	6.53 µM	22.8 µM	0.839 µM	3.92 µM
N#Cc1cccc(/C=C(/C(=O)c2ccccc2)c2ccccc2)c1	9.61 µM	27.8 µM	5.31 µM	19 µM	3.52 µM	23.6 µM	3.31 µM	11.6 µM	4.1 µM	24.6 µM	3.99 µM	13.5 µM			4.05 µM	20.8 µM	4.3 µM	17.2 µM
Cc1cccc(NC(=O)CCl)c1		> 10 µM				> 10 µM		> 10 µM		> 10 µM		> 10 µM		> 10 µM		> 10 µM		> 10 µM
NC(CSc1nc2ccccn2c1[N+](=O)[O-])C(=O)O (stereo not given)		> 100 µM		8.54 µM		> 100 µM		> 100 µM		> 100 µM		> 100 µM				> 100 µM		> 100 µM
COc1ccc2[nH]c(=O)c(/C=C/C(=O)/C=C/c3ccc(O)c(OC)c3)cc2c1	2.16 µM	5.28 µM	1.47 µM	2.79 µM	1.35 µM	> 100 µM	1.08 µM	2.66 µM	1.52 µM	3.19 µM	2.03 µM	4.75 µM	2.24 µM	> 100 µM	1.67 µM	4.99 µM	2.25 µM	7.14 µM
c1ccc(-c2nnc(Nc3ccc4c(c3)OCCO4)o2)c(NCc2ccncc2)c1	0.68 µM	> 67.3 µM	0.22 µM	26.3 µM	< 0.01 µM	4.43 µM	0.0327 µM	0.435 µM	0.0312 µM	> 100 µM	0.0297 µM	19.9 µM	0.0236 µM	0.722 µM	0.0223 µM	0.273 µM	0.0696 µM	> 67.6 µM
CCCCCCCCCCCC[n+]1ccccc1	1.18 µM	3.41 µM	1.72 µM	11 µM	0.415 µM	11.4 µM	1.12 µM	2.87 µM	1.17 µM	2.81 µM	1.9 µM	5.57 µM	0.422 µM	1.99 µM	0.835 µM	2.82 µM	1.58 µM	5.67 µM
C#C[C@@]1(O)[C@@H](CO)O[C@@H](n2ccc3c(N)ncnc32)[C@@H]1O	1.68 µM	5.55 µM			0.806 µM	> 100 µM	1.82 µM	10.9 µM	1.79 µM	4.48 µM	2.05 µM	7.91 µM	1.57 µM	5.49 µM	1.42 µM	3 µM	2.33 µM	26.1 µM
CN(C)CCNC(=O)Cn1ccc(=O)c2ccc([N+](=O)[O-])cc21		> 100 µM		> 100 µM		> 100 µM		> 100 µM		> 100 µM		> 100 µM		> 100 µM		> 100 µM		> 100 µM
Nc1ccn(C2CC(O)C(CO)O2)c(=O)n1 (stereo not given)	> 5000 µM	> 5000 µM	> 5000 µM	> 5000 µM	> 5000 µM	> 5000 µM	> 5000 µM	> 5000 µM	> 5000 µM	> 5000 µM	> 5000 µM	> 5000 µM	> 5000 µM	> 5000 µM	> 5000 µM	> 5000 µM	> 5000 µM	> 5000 µM
COc1cc2nc(N3CCCC3)nc(Nc3ccccc3)c2cc1OC	1.88 µM	3.37 µM	1.39 µM	2.84 µM	0.382 µM	2.07 µM	1.74 µM	3.32 µM	1.73 µM	3.23 µM	1.93 µM	4.2 µM	0.635 µM	2.42 µM	1.83 µM	3.56 µM	1.85 µM	3.93 µM
